T1: outer-arm dynein intermediate chain IC3 (T. thermophila, UniProt Q23FU1 1-670)
T1 construct: outer-arm dynein intermediate chain 3, T. thermophila, native subunit; source: purified from T. thermophila cilia as a subunit of native OAD (high salt extraction, sucrose gradient, ion exchange)
T1 sequence (looked up): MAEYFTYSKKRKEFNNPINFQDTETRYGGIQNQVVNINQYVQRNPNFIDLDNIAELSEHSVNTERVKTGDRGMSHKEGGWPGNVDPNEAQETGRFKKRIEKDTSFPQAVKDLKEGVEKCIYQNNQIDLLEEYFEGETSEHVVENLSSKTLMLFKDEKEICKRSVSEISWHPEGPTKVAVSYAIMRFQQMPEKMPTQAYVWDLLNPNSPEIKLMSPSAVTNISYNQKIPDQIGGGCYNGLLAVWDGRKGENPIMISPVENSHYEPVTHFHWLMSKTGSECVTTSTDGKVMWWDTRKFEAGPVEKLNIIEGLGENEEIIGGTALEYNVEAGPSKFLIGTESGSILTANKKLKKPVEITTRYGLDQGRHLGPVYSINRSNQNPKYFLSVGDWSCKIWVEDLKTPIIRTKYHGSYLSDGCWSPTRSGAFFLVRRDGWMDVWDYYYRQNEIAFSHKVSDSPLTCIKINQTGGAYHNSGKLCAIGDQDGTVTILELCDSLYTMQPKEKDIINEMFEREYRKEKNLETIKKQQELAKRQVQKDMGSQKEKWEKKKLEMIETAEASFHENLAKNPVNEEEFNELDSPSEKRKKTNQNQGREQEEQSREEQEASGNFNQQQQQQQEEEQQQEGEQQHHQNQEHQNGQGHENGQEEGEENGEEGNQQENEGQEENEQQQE

B1: Tctex-b (LC2A) (natural protein, T. thermophila, UniProt C0HME8 1-132, looked up)
chain: MKGTYLYLNIYKRKREASLITLNYIKNRFYPSKIQKIIKELFEDRLKGVEYDPNNANQLSERLVLELREKIKRGKVPRYKIGVQVVFGEIKGQGLRIASKCLWDVQNDNYASYTYTSEKVYCTGIVFGCYFE
notes: light chain LC2A, the best hit for the Tctex-b position, T. thermophila; source: purified from T. thermophila cilia as a subunit of native OAD (high salt extraction, sucrose gradient, ion exchange)
B2: outer-arm dynein intermediate chain IC2 (natural protein, T. thermophila, UniProt I7M008 1-667, looked up)
chain: MPPKQTKVVASRKTVMPISRAGRAQIRRKDSNTQNNMNDQGMEDEEIDQQREGMKNQYEQLTAQELNEDMPSKMLEPKNPQAPKNITVYDYYTRKFKTDELVDQMIVHFSMDGDYIWKESNEYKTQEEIRDTKKALIKEAMRKQESEEPGANHDEEAIKQTLRNKFNYNTRECQTINPSIRERGVSTEPPPSDTICGNITQWEIFDAYYAEIMKDHQIENKKKKEVDQDKKQDQSMYSTSFKRCCKIMERMVVQNDQEDKYHDYRYYWSQGDNLEAGKNEGHLLPIWRFSNEKQRKKNVTSICWNPLYPDLFAVSLGSYDFTKQRMGLICLYSLKNTTHPEYAFNCEAGVMCLDFHPKSAALLAVGLYDGTVLVYDIRNKHKKPIYQSTVRNQKHTDPVWQVKWNPDTSKNYNFYSISSDGRVMNWILMKNKLEPEEVILLRLVGKNEEESTLIGLACGLCFDFNKFEPHIFLVGTEEGKIHKCSRAYSGQYQETYNGHLLAVYKVKWNNFHPRTFISASADWTVRIWDSKYTSQIICFDLSMMVVDAVWAPYSSTVFACATMDKVQVYDLNVDKLNKLAEQKIVKQPKLTNLSFNYKDPILLVGDSHGGVTLVKLSPNLCKSGPEIKQTEDKKAMEEFKNVKIEDYEREKMENLLAVVSKWEREDA
notes: outer-arm dynein intermediate chain 2, T. thermophila, native subunit; source: purified from T. thermophila cilia as a subunit of native OAD (high salt extraction, sucrose gradient, ion exchange)

Assays:
[1] = biological target: T2, γ-HC (γ-motor domain) of T. thermophila OAD (Tetrahymena thermophila, UniProt I7M6H4); test: cryo-EM structure of OAD-MTD array; assay type: binding; conditions: Mg2+, no nucleotide added (apo state, co-purified)
T2 construct: gene TTHERM_00486600; from cilia
T2 sequence (I7M6H4 1-4168): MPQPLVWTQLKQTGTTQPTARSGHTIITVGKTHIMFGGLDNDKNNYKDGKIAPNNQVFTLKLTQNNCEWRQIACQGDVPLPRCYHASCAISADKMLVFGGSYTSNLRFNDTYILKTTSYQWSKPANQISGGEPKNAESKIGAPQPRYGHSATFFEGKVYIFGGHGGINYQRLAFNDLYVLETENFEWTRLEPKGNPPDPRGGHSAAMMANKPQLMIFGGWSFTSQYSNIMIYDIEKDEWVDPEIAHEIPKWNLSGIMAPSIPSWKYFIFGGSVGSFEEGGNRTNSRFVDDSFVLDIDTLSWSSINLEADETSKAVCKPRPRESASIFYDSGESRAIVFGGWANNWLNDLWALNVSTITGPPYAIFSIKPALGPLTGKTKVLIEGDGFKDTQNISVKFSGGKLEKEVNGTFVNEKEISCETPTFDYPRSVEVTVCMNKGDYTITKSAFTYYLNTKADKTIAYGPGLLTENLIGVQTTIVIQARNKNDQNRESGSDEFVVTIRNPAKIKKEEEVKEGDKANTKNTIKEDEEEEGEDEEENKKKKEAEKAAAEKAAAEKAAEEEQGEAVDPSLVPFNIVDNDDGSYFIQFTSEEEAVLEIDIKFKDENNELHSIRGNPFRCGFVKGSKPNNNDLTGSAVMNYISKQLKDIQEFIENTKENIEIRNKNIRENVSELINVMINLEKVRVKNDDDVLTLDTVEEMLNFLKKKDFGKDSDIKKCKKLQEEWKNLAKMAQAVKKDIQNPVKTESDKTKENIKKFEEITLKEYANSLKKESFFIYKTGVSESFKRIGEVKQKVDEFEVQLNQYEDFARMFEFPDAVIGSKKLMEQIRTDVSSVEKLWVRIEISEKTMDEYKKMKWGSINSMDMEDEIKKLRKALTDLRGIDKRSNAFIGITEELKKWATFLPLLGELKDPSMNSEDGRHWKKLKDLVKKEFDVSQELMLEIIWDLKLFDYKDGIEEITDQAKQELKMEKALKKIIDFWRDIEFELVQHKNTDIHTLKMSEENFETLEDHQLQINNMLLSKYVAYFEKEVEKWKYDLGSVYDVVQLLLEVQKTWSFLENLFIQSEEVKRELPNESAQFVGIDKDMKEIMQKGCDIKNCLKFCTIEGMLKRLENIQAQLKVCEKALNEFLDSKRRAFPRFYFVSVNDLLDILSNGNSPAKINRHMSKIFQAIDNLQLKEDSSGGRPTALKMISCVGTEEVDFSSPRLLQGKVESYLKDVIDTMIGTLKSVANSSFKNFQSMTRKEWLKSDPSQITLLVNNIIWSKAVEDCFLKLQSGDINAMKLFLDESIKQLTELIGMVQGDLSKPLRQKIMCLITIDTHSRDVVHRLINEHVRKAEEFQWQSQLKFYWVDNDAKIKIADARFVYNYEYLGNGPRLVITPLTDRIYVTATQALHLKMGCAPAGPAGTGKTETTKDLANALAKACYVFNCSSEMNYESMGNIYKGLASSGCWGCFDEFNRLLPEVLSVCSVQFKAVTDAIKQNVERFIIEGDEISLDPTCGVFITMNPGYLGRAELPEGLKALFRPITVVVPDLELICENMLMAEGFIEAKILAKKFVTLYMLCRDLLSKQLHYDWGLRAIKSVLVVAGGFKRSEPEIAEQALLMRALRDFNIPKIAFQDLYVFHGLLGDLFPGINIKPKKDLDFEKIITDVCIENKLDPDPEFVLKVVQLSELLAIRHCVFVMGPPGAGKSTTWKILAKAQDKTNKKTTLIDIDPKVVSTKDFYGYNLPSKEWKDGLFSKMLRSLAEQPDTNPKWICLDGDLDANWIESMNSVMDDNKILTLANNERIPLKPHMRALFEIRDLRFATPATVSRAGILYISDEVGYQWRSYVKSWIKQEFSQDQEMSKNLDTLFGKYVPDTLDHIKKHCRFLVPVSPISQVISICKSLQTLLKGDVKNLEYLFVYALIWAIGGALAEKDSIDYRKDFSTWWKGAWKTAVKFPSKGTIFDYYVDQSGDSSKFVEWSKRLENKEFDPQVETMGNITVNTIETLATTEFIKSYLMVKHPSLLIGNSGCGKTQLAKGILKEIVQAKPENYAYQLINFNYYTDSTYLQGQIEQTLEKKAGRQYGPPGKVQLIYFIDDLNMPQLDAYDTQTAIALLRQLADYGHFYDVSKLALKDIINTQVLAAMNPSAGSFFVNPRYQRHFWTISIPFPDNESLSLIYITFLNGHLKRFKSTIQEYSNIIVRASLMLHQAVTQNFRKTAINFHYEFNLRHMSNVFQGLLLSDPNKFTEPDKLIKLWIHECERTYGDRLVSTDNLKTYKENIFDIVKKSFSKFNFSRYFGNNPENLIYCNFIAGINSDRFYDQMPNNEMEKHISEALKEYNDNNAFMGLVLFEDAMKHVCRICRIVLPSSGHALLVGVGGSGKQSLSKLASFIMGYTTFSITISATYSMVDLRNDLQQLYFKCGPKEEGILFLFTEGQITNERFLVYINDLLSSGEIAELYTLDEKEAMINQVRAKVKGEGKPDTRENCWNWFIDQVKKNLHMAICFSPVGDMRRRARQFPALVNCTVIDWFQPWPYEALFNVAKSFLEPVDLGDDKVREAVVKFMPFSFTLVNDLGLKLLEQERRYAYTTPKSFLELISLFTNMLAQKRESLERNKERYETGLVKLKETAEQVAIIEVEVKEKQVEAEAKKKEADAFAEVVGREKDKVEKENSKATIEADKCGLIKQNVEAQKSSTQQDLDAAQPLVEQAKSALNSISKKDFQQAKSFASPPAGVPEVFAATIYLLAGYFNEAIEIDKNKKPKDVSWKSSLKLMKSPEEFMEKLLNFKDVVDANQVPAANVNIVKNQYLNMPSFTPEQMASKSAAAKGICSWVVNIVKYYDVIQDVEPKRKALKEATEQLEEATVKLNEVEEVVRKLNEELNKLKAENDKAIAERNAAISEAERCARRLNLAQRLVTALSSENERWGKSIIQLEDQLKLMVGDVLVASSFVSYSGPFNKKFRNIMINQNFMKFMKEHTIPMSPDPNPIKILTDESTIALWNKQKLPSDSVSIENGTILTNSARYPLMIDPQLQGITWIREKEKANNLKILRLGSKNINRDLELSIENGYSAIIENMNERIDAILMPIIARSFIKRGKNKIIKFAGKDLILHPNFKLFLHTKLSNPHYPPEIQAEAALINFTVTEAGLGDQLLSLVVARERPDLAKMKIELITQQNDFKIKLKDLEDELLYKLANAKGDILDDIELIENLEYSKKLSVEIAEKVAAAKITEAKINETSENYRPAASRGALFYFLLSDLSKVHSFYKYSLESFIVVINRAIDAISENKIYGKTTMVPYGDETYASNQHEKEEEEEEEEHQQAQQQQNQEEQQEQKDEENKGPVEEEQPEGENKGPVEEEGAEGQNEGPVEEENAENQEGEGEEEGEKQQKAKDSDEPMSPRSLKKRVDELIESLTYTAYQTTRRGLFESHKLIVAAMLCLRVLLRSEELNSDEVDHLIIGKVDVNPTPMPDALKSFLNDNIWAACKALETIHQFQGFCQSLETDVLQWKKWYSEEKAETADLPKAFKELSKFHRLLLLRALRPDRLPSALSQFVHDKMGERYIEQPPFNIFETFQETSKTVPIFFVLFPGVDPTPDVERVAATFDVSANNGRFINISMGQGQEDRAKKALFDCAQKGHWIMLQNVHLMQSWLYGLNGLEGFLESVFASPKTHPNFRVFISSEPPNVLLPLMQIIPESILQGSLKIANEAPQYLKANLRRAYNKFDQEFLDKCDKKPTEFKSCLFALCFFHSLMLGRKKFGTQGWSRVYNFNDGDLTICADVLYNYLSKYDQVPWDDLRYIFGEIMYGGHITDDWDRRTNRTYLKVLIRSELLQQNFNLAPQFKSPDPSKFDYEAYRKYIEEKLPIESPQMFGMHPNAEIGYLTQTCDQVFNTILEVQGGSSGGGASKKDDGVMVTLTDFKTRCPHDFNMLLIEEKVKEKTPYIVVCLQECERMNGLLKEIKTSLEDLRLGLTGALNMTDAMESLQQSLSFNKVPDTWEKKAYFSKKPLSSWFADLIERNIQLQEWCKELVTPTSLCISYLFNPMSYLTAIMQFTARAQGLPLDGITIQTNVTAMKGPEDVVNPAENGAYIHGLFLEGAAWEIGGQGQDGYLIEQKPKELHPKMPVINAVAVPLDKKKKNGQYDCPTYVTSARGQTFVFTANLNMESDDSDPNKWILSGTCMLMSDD

[2] = biological target: T3, β-HC (β-motor domain) of T. thermophila OAD (Tetrahymena thermophila, UniProt I7M9J2); test: cryo-EM structure of OAD-MTD array; assay type: binding; conditions: Mg2+, no nucleotide added (apo state, co-purified)
T3 construct: gene TTHERM_00499300; from cilia

[3] = biological target: T4, α-HC (α-motor domain) of T. thermophila OAD (Tetrahymena thermophila, UniProt Q22A67); test: cryo-EM structure of OAD-MTD array; assay type: binding; conditions: Mg2+, no nucleotide added (apo state, co-purified)
T4 construct: gene TTHERM_01276420; from cilia

[4] = biological target: T5, outer-arm dynein (OAD) (Tetrahymena thermophila, UniProt I7M6H4+I7M9J2+Q22A67); test: negative-stain EM of OAD coverage on MTD; microtubule gliding assay; assay type: biochemical; conditions: 1 mM ATP; 45 nM OAD; 20 mM HEPES pH 7.4, 100 mM KCl, 5 mM MgSO4, 1 mM DTT
T5 construct: gene TTHERM_01276420; native OAD, high-salt extract of axonemes, sucrose gradient and ion exchange; not cross-linked; with Dynein intermediate chain 2; Dynein intermediate chain 3; Dynein light chain LC7-a (LC7A homolog); Dynein light chain LC7B; Dynein light chain LC10; Dynein light chain DLC82; Dynein light chain LC8E; Dynein light chain LC8-2b; Dynein light chain LC8-3a; Dynein light chain LC8-3b; Dynein light chain Tctex-a; Dynein light chain LC2A; Dynein light chain LC4A; Dynein light chain LC3BL; Dynein light chain 1

[5] = biological target: T5, outer-arm dynein (OAD); test: negative-stain EM count of OAD array length / coverage on MTD; assay type: biochemical; conditions: 10 to 1,000 μM ATPγS; slowly hydrolysed; 45 nM OAD; 20 mM HEPES pH 7.4, 100 mM KCl, 5 mM MgSO4, 1 mM DTT
[6] = biological target: B2; test: cryo-EM structure; freshly purified native OAD (not cross-linked) reconstituted on MTD in 20 mM HEPES pH 7.4, 100 mM KCl, 5 mM MgSO4, 1 mM DTT, on ice 45 min; apo state, no docking complex; two classes MTBS-1 and MTBS-2; MTD lattice refined from the same data; conditions: both partners purified
[7] = biological target: T1, outer-arm dynein intermediate chain IC3; test: as above; conditions: both partners purified
[8] = sites AAA3 and AAA4 (same state as β-HC)

With `Nc1ncnc2c1ncn2[C@@H]1O[C@H](COP(=O)(O)OP(=O)(O)O)[C@@H](O)[C@H]1O` [ADP] as the molecule, how does the “cryo-EM structure of OAD-MTD array” value [1, 8] read?
Its value is “Other motor domains have the same nucleotide binding states”.

And the “cryo-EM structure of OAD-MTD array” value ([2]; sites AAA3 and AAA4)?
Its value is “ATP in β-AAA2 and ADP in β-AAA3/AAA4 were unambiguously identified from the density”.

And the “cryo-EM structure of OAD-MTD array” value [3, 8]?
The value was “Other motor domains have the same nucleotide binding states”.

How did the “cryo-EM structure of OAD-MTD array” value ([1]; site AAA2 (same state as β-HC)) turn out when `Nc1ncnc2c1ncn2[C@@H]1O[C@H](COP(=O)(O)OP(=O)(O)OP(=O)(O)O)[C@@H](O)[C@H]1O` [ATP] was run?
Its value is “Other motor domains have the same nucleotide binding states”.

And the “cryo-EM structure of OAD-MTD array” value ([2]; site AAA2)?
The value was “ATP in β-AAA2 and ADP in β-AAA3/AAA4 were unambiguously identified from the density”.

And the “cryo-EM structure of OAD-MTD array” value ([3]; site AAA2 (same state as β-HC))?
Its value is “Other motor domains have the same nucleotide binding states”.

And the “negative-stain EM of OAD coverage on MTD; microtubule gliding assay” value [4]?
Its value is “fell off the MTDs in the presence of ATP, ADP·Vi or ATPγS”.

For `Nc1ncnc2c1ncn2[C@@H]1O[C@H](COP(=O)(O)OP(=O)(O)OP(O)(O)=S)[C@@H](O)[C@H]1O` [ATPγS], which “negative-stain EM count of OAD array length / coverage on MTD” value [5] is on record?
The value was “Using a titration of ATPγS, we were able to gradually shorten OAD arrays in vitro”.

What does the source list for B1?
binding result [6]: binds; binding result [7]: binds

Does B2 bind [7]?
Result: binds

— publication PMC8500839, “Structures of outer-arm dynein array on microtubule doublet reveal a motor coordination mechanism” (Nature Structural & Molecular Biology, 2021)
